Data on 27 compounds can be found in US6512000B1, “Aminocarbonyl-substituted benzimidazoles having tryptase-inhibitory activity” (Boehringer Ingelheim Pharma KG, priority 1999, dated 2003).

This experiment addresses T1, rh beta tryptase (Homo sapiens, UniProt P20231).
T1 construct: purchased Promega
Put plainly: Tryptase inhibition test (cleavage of N-p-tosyl-Gly-Pro-Lys-para-nitroaniline, p-nitroaniline measured at 405 nm). In kind it is biochemical. The note with it: pH 7.4, 37° C.; for IC50: concentration at which 50% of the tryptase enzyme activity is inhibited, substrate 0.6 mM; for inhibition at 10 µM / % Inhibition (10 μM): inhibition of rh beta tryptase at 10 μM test substance, substrate N-p-tosyl-Gly-Pro-Lys-para-nitroaniline 0.6 mM, 5 minutes. The gist of the method:
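Screening at 10 μM gives percent inhibition, with IC50 derived for compounds above 70% inhibition. Enzyme: rh beta tryptase, 0.91 U/ml, pH 7.4 Tris HCl (100 mM), 5 mM Ca, 100 mg/ml heparin. After 5 min compound pre-incubation, 0.6 mM pNA substrate cleaved 5 min at 37 °C, monitored at 405 nm.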

T1 sequence (P20231 31-275): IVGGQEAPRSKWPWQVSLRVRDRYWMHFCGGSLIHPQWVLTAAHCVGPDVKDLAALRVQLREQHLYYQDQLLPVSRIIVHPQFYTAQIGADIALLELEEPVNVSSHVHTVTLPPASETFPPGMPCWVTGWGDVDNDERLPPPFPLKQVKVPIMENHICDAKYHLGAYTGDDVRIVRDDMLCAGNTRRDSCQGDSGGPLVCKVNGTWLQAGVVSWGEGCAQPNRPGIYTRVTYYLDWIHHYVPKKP

As a reminder, the IC50 is the midpoint of a concentration-inhibition curve. What is called inhibition is the drop in the measured response relative to a control, in per cent. A higher inhibition goes with a response far below the control. `COc1cccc(CN(CCN)C(=O)c2ccc3c(c2)nc(CCc2ccc(C(=N)N)cc2)n3CC2CC2)c1` [Example 266, 2-[2-(4-amidinophenyl)ethyl]-1-cyclopropylmethyl-benzimidazol-5-yl-carboxylic acid-N-(2-aminoethyl)-N-(3-methoxybenzyl)-amide]: the half-inhibitory concentration (IC50) worked out at 641 nM and the inhibition at 10 µM turned out to be 61%.

Consider `COc1cccc(CN(CCN)C(=O)c2ccc3c(c2)nc(CCc2ccc(C(=N)N)cc2)n3CC2CCCO2)c1` (stereo not drawn) [Example 274, 2-[2-(4-amidinophenyl)ethyl]-1-(tetrahydrofuran-2-yl-methyl)-benzimidazol-5-yl-carboxylic acid-N-(2-aminoethyl)-N-(3-methoxybenzyl)-amide], for which the inhibition at 10 µM turned out to be 57%.

`CCCCN(CCN)C(=O)c1ccc2c(c1)nc(CCc1ccc(C(=N)N)cc1)n2CCCOCC` [Example 278, 2-[2-(4-amidinophenyl)ethyl]-1-(3-ethoxypropyl)-benzimidazol-5-yl-carboxylic acid-N-(2-aminoethyl)-N n-butyl-amide] returned an IC50 of 251 nM and an inhibition at 10 µM of 83%.

`CCCCN(CCCC)CCCn1c(CCc2ccc(C(=N)N)cc2)nc2cc(C(=O)N(CCN)CCCC)ccc21` [Example 279, 2-[2-(4-amidinophenyl)ethyl]-1-(3-di-n-butylaminopropyl)-benzimidazol-5-yl-carboxylic acid-N-(2-aminoethyl)-N-n-butyl-amide] registered an inhibition at 10 µM of 60%.

Turning to `CCCCN(CCN)C(=O)c1ccc2c(c1)nc(CCc1ccc(C(=N)N)cc1)n2CCCNC(=O)Cc1ccccc1` [Example 280, 2-[2-(4-amidinophenyl)ethyl]-1-[3-(benzylcarbonylamino)-propyl]-benzimidazol-5-yl-carboxylic acid-N-(2-aminoethyl)-N-n-butyl-amide], at 10 µM the inhibition was 59%.

`CCCCN(CCN)C(=O)c1ccc2c(c1)nc(CCc1ccc(C(=N)N)cc1)n2CC1CC1` [Example 282, 2-[2-(4-amidinophenyl)ethyl]-1-cyclopropylmethyl-benzimidazol-5-yl-carboxylic acid-N-(2-aminoethyl)-N-n-butyl-amide] gave an inhibition at 10 µM of 65%.

Compound `CCCCN(CCN)C(=O)c1ccc2c(c1)nc(CCc1ccc(C(=N)N)cc1)n2CCc1ccccc1` [Example 283, 2-[2-(4-amidinophenyl)ethyl)-1-(2-phenylethyl)-benzimidazol-5-yl-carboxylic acid-N-(2-aminoethyl)-N-n-butyl-amide] showed an inhibition at 10 µM of 59%.

`CCCCN(CCN)C(=O)c1ccc2c(c1)nc(CCc1ccc(C(=N)N)cc1)n2CCc1ccc(Cl)cc1` [Example 284, 2-[2-(4-amidinophenyl)ethyl]-1-[2-(4-chlorophenyl)ethyl]-benzimidazol-5-yl-carboxylic acid-N-(2-aminoethyl)-N-n-butyl-amide] registered an inhibition at 10 µM of 55%.

`CCCCN(CCN)C(=O)c1ccc2c(c1)nc(CCc1ccc(C(=N)N)cc1)n2CCCN1CCN(c2ccccc2C)CC1` [Example 288, 2-[2-(4-amidinophenyl)ethyl]-1-{3-[4-(2-methylphenyl)-piperazin-1-yl]-propyl}-benzimidazol-5-yl-carboxylic acid-N-(2-aminoethyl)-N-n-butyl-amide] registered an inhibition at 10 µM of 65%.

With `CCCCN(CCN)C(=O)c1ccc2c(c1)nc(CCc1ccc(C(=N)N)cc1)n2CC1CCCO1` (stereo not drawn) [Example 290, 2-[2-(4-amidinophenyl)ethyl]-1-(tetrahydrofuran-2-yl-methyl)-benzimidazol-5-yl-carboxylic acid-N-(2-aminoethyl)-N-n-butyl-amide], the inhibition at 10 µM was determined as 70%.

For `CCCCN(CCN)C(=O)c1ccc2c(c1)nc(CCc1ccc(C(=N)N)cc1)n2Cc1cccs1` [Example 291, 2-[2-(4-amidinophenyl)ethyl]-1-(2-thiophenyl-methyl)-benzimidazol-5-ylcarboxylic acid-N-(2-aminoethyl)-N-n-butyl-amide], the inhibition at 10 µM came out at 75%.

In turn, `CCOCCCn1c(CCc2ccc(C(=N)N)cc2)nc2cc(C(=O)N(CCN)Cc3ccccc3)ccc21` [Example 294, 2-[2-(4-amidinophenyl)ethyl]-1-(3-ethoxypropyl)-benzimidazol-5-yl-carboxylic acid-N-(2-aminoethyl)-N-benzyl-amide] gave an IC50 of 350 nM and an inhibition at 10 µM of 69%.

`CCCCN(CCCC)CCCn1c(CCc2ccc(C(=N)N)cc2)nc2cc(C(=O)N(CCN)Cc3ccccc3)ccc21` [Example 295, 2-[2-(4-amidinophenyl)ethyl]-1-(3-di-n-butylaminopropyl)-benzimidazol-5-yl-carboxylic acid-N-(2-aminoethyl)-N-benzyl-amide] showed an inhibition at 10 µM of 55%.

Turning to `N=C(N)c1ccc(CCc2nc3cc(C(=O)N(CCN)Cc4ccccc4)ccc3n2CCCNC(=O)Cc2ccccc2)cc1` [Example 296, 2-[2-(4-amidinophenyl)ethyl]-1-[3-(benzylcarbonylamino)-propyl]-benzimidazol-5-yl-carboxylie acid-N-(2-aminoethyl)-N-benzyl-amide], the “% Inhibition (10 μM)” value is 51%.

The compound `N=C(N)c1ccc(CCc2nc3cc(C(=O)N(CCN)Cc4ccccc4)ccc3n2CC2CC2)cc1` [Example 298, 2-[2-(4-amidinophenyl)ethyl]-1-cyclopropylmethyl-benzimidazol-5-yl-carboxylic acid-N-(2-aminoethyl)-N-benzyl-amide] returned an inhibition at 10 µM of 57%.

In turn, `Cc1ccccc1N1CCN(CCCn2c(CCc3ccc(C(=N)N)cc3)nc3cc(C(=O)N(CCN)Cc4ccccc4)ccc32)CC1` [Example 304, 2-[2-(4-amidinophenyl)ethyl]-1-{3-[4-(2-methylphenyl)-piperazin-1-yl]-propyl}-benzimidazol-5-yl-carboxylic acid-N-(2-aminoethyl)-N-benzyl-amide] yielded an inhibition at 10 µM of 51%.

`N=C(N)c1ccc(CCc2nc3cc(C(=O)N(CCN)Cc4ccccc4)ccc3n2CC2CCCO2)cc1` (stereo not drawn) [Example 306, 2-[2-(4-amidinophenyl)ethyl]-1-(tetrahydrofuran-2-yl-methyl)-benzimidazol-5-yl-carboxylic acid-N-(2-aminoethyl)-N-benzyl-amide] yielded an inhibition at 10 µM of 62%.

On to `N=C(N)c1ccc(CCc2nc3cc(C(=O)N(CCN)Cc4ccccc4)ccc3n2Cc2cccs2)cc1` [Example 307, 2-[2-(4-amidinophenyl)ethyl]-1-(2-thiophenyl-methyl)-benzimidazol-5-yl-carboxylic acid-N-(2-aminoethyl)-N-benzyl-amide], for which the inhibition at 10 µM was found to be 57%.

In the case of `CCOCCCn1c(CCc2ccc(C(=N)N)cc2)nc2cc(C(=O)N(CCN)c3ccccn3)ccc21` [Example 310, 2-[2-(4-amidinophenyl)ethyl]-1-(3-ethoxypropyl)-benzimidazol-5-yl-carboxylic acid-N-(2-aminoethyl)-N (2-pyridyl)-amide], half-maximal inhibition (IC50) required 253 nM and the “% Inhibition (10 μM)” value was 70%.

The compound `CCOCCCn1c(CCc2ccc(C(=N)N)cc2)nc2cc(C(=O)N(CCN)CC3CCCCC3)ccc21` [Example 342, 2-[2-(4-amidinophenyl)ethyl]-1-(3-ethoxypropyl)-benzimidazol-5-yl-carboxylic acid-N-(2-aminoethyl)-N-cyclohexylmethyl-amide] had an IC50 of 275 nM and an inhibition at 10 µM of 75%.

Take `N=C(N)c1ccc(CCc2nc3cc(C(=O)N(CCN)CC4CCCCC4)ccc3n2CC2CC2)cc1` [Example 346, 2-[2-(4-amidinophenyl)ethyl]-1-cyclopropylmethyl-benzimidazol-5-yl-carboxylic acid-N-(2-aminoethyl)-N-cyclohexylmethyl-amide]: the inhibition at 10 µM came to 51%.

Consider `Cc1ccccc1N1CCN(CCCn2c(CCc3ccc(C(=N)N)cc3)nc3cc(C(=O)N(CCN)CC4CCCCC4)ccc32)CC1` [Example 352, 2-[2-(4-amidinophenyl)ethyl]-1-{3-[4-(2-methylphenyl)-piperazin-1-yl]-propyl}-benzimidazol-5-yl-carboxylic acid-N-(2-aminoethyl)-N-cyclohexylmethyl-amide], for which the inhibition at 10 µM worked out at 51%.

The compound `N=C(N)c1ccc(CCc2nc3cc(C(=O)N(CCN)CC4CCCCC4)ccc3n2CC2CCCO2)cc1` (stereo not drawn) [Example 354, 2-[2-(4-amidinophenyl)ethyl]-1-(tetrahydrofuran-2-yl-methyl)-benzimidazol-5-yl-carboxylic acid-N-(2-aminoethyl)-N-cyclohexylmethyl-amide] registered an inhibition at 10 µM of 58%.

`N=C(N)c1ccc(CCc2nc3cc(C(=O)N(CCN)CC4CCCCC4)ccc3n2Cc2cccs2)cc1` [Example 355, 2-[2-(4-amidinophenyl)ethyl]-1-(2-thiophenyl-methyl)-benzimidazol-5-yl-carboxylic acid-N-(2-aminoethyl)-N-cyclohexylmethyl-amide] came in with an inhibition at 10 µM of 51%.

`CCOCCCn1c(CCc2ccc(C(=N)N)cc2)nc2cc(C(=O)N(CCN)CCCc3ccccc3)ccc21` [Example 358, 2-[2-(4-amidinophenyl)ethyl]-1-(3-ethoxypropyl)-benzimidazol-5-yl-carboxylic acid-N-(2-aminoethyl)-N-(3-phenylpropyl)-amide] gave an IC50 of 169 nM and an inhibition at 10 µM of 77%.

For `CCCCN(CCCC)CCCn1c(CCc2ccc(C(=N)N)cc2)nc2cc(C(=O)N(CCN)CCCc3ccccc3)ccc21` [Example 359, 2-[2-(4-amidinophenyl)ethyl]-1-(3-di-n-butylaminopropyl)-benzimidazol-5-yl-carboxylic acid-N-(2-aminoethyl)-N-(3-phenylpropyl)-amide], the inhibition at 10 µM stood at 59%.

`N=C(N)c1ccc(CCc2nc3cc(C(=O)N(CCN)CCCc4ccccc4)ccc3n2CC2CC2)cc1` [Example 362, 2-[2-(4-amidinophenyl)ethyl]-1-cyclopropylmethyl-benzimidazol-5-yl-carboxylic acid-N-(2-aminoethyl)-N-(3-phenylpropyl)-amide] returned an inhibition at 10 µM of 74%.
